Where “and” joins values, the source holds several entries; their conditions need not be identical. Equal entries are not always repeated.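 Dose response: 5 concentrations. Exposure: 48 h. Format: 96-well plates. Endpoint: linear interpolation; highest concentration if not reached. The concentration for 50% growth inhibition is given as GI50. TGI marks complete inhibition of growth.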 Starred links: 1 amine or outer side, 2 acyl side, 3 side chain; linkers in the order of their positions; H or OH if unused. Positions of bridges follow the written chain, without caps; N, C: chain ends. Non-standard residues stand in square brackets, D forms with d. Residues, ends and D or L forms follow the SMILES beside them. Chains are numbered I, II in the order given. Actinocin(9to1) = Cc1c2oc3c(C)ccc(C(=O)[*:1])c3nc-2c(C(=O)[*:2])c(N)c1=O; NMeY = CN[CH](Cc1ccc(O)cc1)C(=O)O; Sar = CNCC(=O)O
Key:
Experiment in all cases: NCI tumour cell line growth inhibition, 48 h
A549 NSCLC = test system: A549 NSCLC
DLD-1 colon = test system: DLD-1 colon
HOP-18 NSCLC = test system: HOP-18 NSCLC
KM12 colon = test system: KM12 colon
KM20L2 colon = test system: KM20L2 colon
LXFL 529 NSCLC = test system: LXFL 529 NSCLC
M19-MEL melanoma = test system: M19-MEL melanoma
RPMI-8226 leukemia = test system: RPMI-8226 leukemia
RXF-631 renal = test system: RXF-631 renal
SNB-75 CNS = test system: SNB-75 CNS
SNB-78 CNS = test system: SNB-78 CNS
U251 CNS = test system: U251 CNS
XF 498 CNS = test system: XF 498 CNS
SR leukemia = test system: SR leukemia

| Structure (SMILES) | TGI (A549 NSCLC) [µM] | TGI (KM12 colon) | TGI (RPMI-8226 leukemia) | TGI (SNB-75 CNS) | TGI (U251 CNS) [µM] | TGI (SR leukemia) [µM] | other results |
| --- | --- | --- | --- | --- | --- | --- | --- |
| COc1cc2c(cc1OC)C(CC1=C(c3ccccc3)CN3CCc4cc(OC)c(OC)cc4C3C1)NCC2 (stereo not given) | 33.5 | 39.1 µM | 28.8 µM | 28 µM | 29.8 | – | TGI (DLD-1 colon): 34.9 µM; TGI (HOP-18 NSCLC): 30.9 µM; TGI (KM20L2 colon): 28.9 µM; TGI (LXFL 529 NSCLC): 31.1 µM; TGI (M19-MEL melanoma): 30.7 µM; TGI (RXF-631 renal): 30.4 µM; TGI (SNB-78 CNS): 31.9 µM; TGI (XF 498 CNS): 25.9 µM |
| Cc1c2oc3c(C)ccc(C(=O)NC4C(=O)NC(C(C)C)C(=O)N5CCCC5C(=O)N(C)CC(=O)N(C)C(Cc5ccc(O)cc5)C(=O)OC4C)c3nc-2c(C(=O)NC2C(=O)NC(C(C)C)C(=O)N3CCCC3C(=O)N(C)CC(=O)N(C)C(Cc3ccc(O)cc3)C(=O)OC2C)c(N)c1=O (stereo not given) (I: TVP[Sar][NMeY] / II: TVP[Sar][NMeY]; ester I:1-I:C, II:1-II:C; linker I:N-II:N via Actinocin(9to1); configuration not given here) | > 1 | 0.536 µM and > 1 µM | 0.926 µM and > 1 µM | 0.278 µM and 0.228 µM | > 1 | > 0.514 | GI50 (A549 NSCLC): 49.9 nM and 11.9 nM; GI50 (SNB-75 CNS): 17.4 nM and 3.16 nM |
| BrC1=C(Br)C2(SCCS2)[C@H]2C[C@@H]1c1ccccc12 | > 100 | > 100 µM | > 100 µM | > 85.9 µM | > 100 | 75 | – |
| NS(=O)(=O)c1ccc(/C=C/c2ccc(O)c(O)c2)cc1 | > 100 | 48.9 µM | 73.3 µM | 58.3 µM | 46.9 | 51.3 | GI50 (A549 NSCLC): 22300 nM; GI50 (KM12 colon): 18.2 µM; GI50 (RPMI-8226 leukemia): 9.16 µM; GI50 (SR leukemia): 12.7 µM; GI50 (U251 CNS): 16.3 µM |
| N#C[C@H](c1ccccn1)c1nc2ccccc2nc1Cl | > 100 | > 100 µM | > 100 µM | > 100 µM | > 100 | > 100 | – |
| CC(=O)N=C1N(/C=C2\C(=O)Oc3ccccc3C2=O)C(=O)/C(=C/c2cccc(Cl)c2Cl)N1C | > 100 | > 100 µM | 52.5 µM | 57.8 µM | > 100 | 54.6 | – |
| CCCC(=O)NC(NC1CCCCC1)(C(=O)OCC)C(F)(F)F (stereo not given) | > 100 | > 100 µM | > 100 µM | > 100 µM | > 100 | > 100 | – |
| COc1ccc(C2SC(N)=Nc3c2c(C)nn3C(=O)c2ccncc2)cc1OC (stereo not given) | > 10 | > 10 µM | > 10 µM | > 10 µM | > 10 | > 10 | – |
| Nc1c(C(=O)O)nnc2ccc(Cl)cc12 | > 100 | > 100 µM | > 100 µM | > 100 µM | > 100 | > 100 | – |
| Cc1c(C)c2c(c(N)c1C#N)C(=O)N(NC(=O)c1ccccc1)C2=O | > 100 | > 100 µM | > 100 µM | > 100 µM | > 100 | > 100 | – |
| O=C(/C=C/c1ccccc1)Oc1cccc(O)c1 | > 100 | 46.3 µM | > 100 µM | > 100 µM | > 100 | 48.6 | – |
| COC[C@@H](N=CC(C)(C)C)C(C)C | > 100 | > 100 µM | > 100 µM | > 100 µM | > 100 | > 100 | – |
| [N-]=[N+]=Nc1c([N+](=O)[O-])c(=O)n(-c2ccccc2)c2ccccc12 | > 100 | > 100 µM | 56.2 µM | 68.1 µM | 49.3 | 82.6 | – |
| COc1cc(OC)c2nc(C)c(CCCl)c(Cl)c2c1 | > 100 | > 100 µM | > 100 µM | > 100 µM | > 100 | > 100 | – |
| Brc1ccc2[nH]cc(-c3csc(-c4c[nH]c5ccccc45)n3)c2c1 | 20.2 | 5.69 µM | 12.1 µM | 23.9 µM | 8.64 | 10.4 | – |
| O=S(=O)(O)CCCc1cccc2ccccc12 | > 100 | > 100 µM | > 100 µM | > 100 µM | > 100 | > 100 | – |
| COc1cc(C2c3cc4c(cc3OC(N3CCCCC3)C2C)OCO4)cc(OC)c1O (stereo not given) | 27.1 | 50.6 µM | > 76.3 µM | 13.7 µM | > 64.6 | > 44.5 | – |
| O=c1oc2ccc3ccccc3c2cc1-c1nc2ccccc2s1 | > 100 | > 100 µM | > 32.8 µM | > 100 µM | > 100 | > 21.5 | – |
| O=C1C=CC(=O)c2c1ccc1c3ccccc3n(CCCCCn3c4ccccc4c4ccc5c(c43)C(=O)C=CC5=O)c21 | > 100 | > 100 µM | 18.8 µM | 32.9 µM | 54 | 6.22 | – |
| COc1cc(OC)cc(Oc2nc3ccccc3nc2C(F)(F)F)c1 | > 100 | > 100 µM | > 100 µM | > 100 µM | > 100 | > 100 | – |
| NC(N)=NCCN1CC2CCC(CC2)C1 | > 100 | > 100 µM | > 100 µM | 98.7 µM | > 100 | > 100 | – |
